Consider 25 molecules from patent publication US20150045409A1, “AMIDE COMPOUND AND USE THEREOF FOR PEST CONTROL” (SUMITOMO CHEMICAL COMPANY, LIMITED, priority 2012, published 2015).

Format in all cases: in vivo
For experiment [1], the system named is German cockroaches (Blattella germanica). Description: Spray knockdown test on German cockroaches (Test Examples 1, 2). The note with it: 5 min, 1.5 ml sprayed, counted after 5 minutes, read-out: knockdown rate; for pest or weed control at 0.5 %: active ingredient 0.5% w/v oil solution; for pest or weed control at 2 %: active ingredient 2.0% w/v oil solution. As for the experimental part: The formulations of Compounds (7), (46), (48) and (54) of the present invention obtained in Formulation Example 7 were diluted with a mixture solution of isopropyl alcohol/deodorized kerosene of 1/9, so as to have a concentration of active ingredient of 2.0% w/v, to prepare a test drug solution.
Ten German cockroaches (Blattella germanica) (5 males and 5 females) were released in a test container (8.75 cm in diameter, 7.5 cm in height, and the bottom made of 16 mesh metallic wire) with the inner wall on which butter was applied, and the container was placed on the bottom of a test chamber (bottom: 46 cm×46 cm, height: 70 cm). From a height of 60 cm above the upper surface of the container, 1.5 ml of the test drug solution was sprayed using a spray gun (a spraying pressure of 0.42 kg/cm^2). Thirty seconds after spraying, the container was taken out from the test chamber, and after 5 minutes, the number of knockdown insects was counted to obtain a knockdown rate. The knockdown rate was calculated by the following equation.
(§1) Knockdown Rate(%)=(Number of Knockdown Insects/Number of Tested Insects)×100
The formulations of Compounds (1), (2), (4), (6) to (8), (10) to (14), (17) to (20), (23) to (25), (28), (31) to (33), (39) to (42), (44) and (50) to (53) of the present invention obtained in Formulation Example 7 were diluted with a mixture solution with a ratio of isopropyl alcohol/deodorized kerosene of 1/9, so as to have a concentration of active ingredient of 0.5% w/v, to prepare a test drug solution.
The test was performed in the same manner as in Test Example 1.

Experiment [2] has as its system last instar larvae of common house mosquitoes (Culex pipiens pallens). Description: Larvicidal test on common house mosquito larvae in water (Test Examples 9, 10). As to conditions: active ingredient 3.5 ppm in water. As for the experimental part:
Each of the formulations of Compounds (26) and (45) of the present invention obtained in Formulation Example 15 was diluted with water, so as to have a concentration of active ingredient of 500 ppm, to prepare a test drug solution.
0.7 ml of the test drug solution was added to 100 ml of ion-exchanged water (a concentration of active ingredient of 3.5 ppm).
Each of the formulations of Compounds (5), (6), (24), (27), (29), (30), (33), (38) and (47) of the present invention obtained in Formulation Example 15 was diluted with water, so as to have a concentration of active ingredient of 500 ppm, to prepare a test drug solution.

The next experiment deals with adult houseflies. Nature of the experiment: Spray knockdown test on adult houseflies (Test Examples 3, 4). As to conditions: Musca domestica, 10 min, 0.5 ml sprayed, counted after 10 minutes, read-out: knockdown rate; for pest or weed control at 2 %: active ingredient 2.0% w/v oil solution; for pest or weed control at 0.5 %: active ingredient 0.5% w/v oil solution. The procedure:
The formulations of Compounds (7), (46) and (48) of the present invention obtained in Formulation Example 7 were diluted with a mixture solution with a ratio of isopropyl alcohol/deodorized kerosene of 1/9, so as to have a concentration of active ingredient of 2.0% w/v, to prepare a test drug solution.
Ten adult houseflies (5 males and 5 females) were released in a polyethylene cup (a bottom diameter of 10.6 cm) which was then capped with 16-mesh nylon gauze. The polyethylene cup was placed on the bottom of a test chamber (bottom: 46 cm×46 cm, height: 70 cm). From a height of 30 cm above the upper surface of the polyethylene cup, 0.5 ml of the test drug solution was sprayed using a spray gun (a spraying pressure of 0.9 kg/cm^2). Immediately after spraying, the cup was taken out from the test container, and after 10 minutes, the number of knockdown insects was counted to obtain a knockdown rate. The knockdown rate was calculated by the following equation.
as §1
The formulations of Compounds (4), (6), (8), (17) to (19), (28), (29), (33), (40) to (42) and (51) to (53) of the present invention obtained in Formulation Example 7 were diluted with a mixture solution with a ratio of isopropyl alcohol/deodorized kerosene of 1/9, so as to have a concentration of active ingredient of 0.5% w/v, to prepare a test drug solution. The test was performed in the same manner as in Test Example 3.

For experiment [3], the system named is adult houseflies (Musca domestica). Nature of the experiment: Filter paper/sucrose bait mortality test on adult houseflies (Test Example 8). The note with it: 0.7 ml on filter paper with sucrose bait, after 24 hours. As for the experimental part:
Each of the formulations of Compounds (2) to (6), (8), (12), (15) to (18), (27), (29), (33), (37) to (39), (41), (42) and (45) of the present invention obtained in Formulation Example 15 was diluted with water, so as to have a concentration of active ingredient of 500 ppm, to prepare a test drug solution.
On the bottom of a polyethylene cup with a diameter of 5.5 cm, a filter paper of the same size was laid down, and 0.7 ml of the test drug solution was dropped onto the filter paper, then 30 mg of sucrose was uniformly put as bait. Ten adult houseflies (Musca domestica) were released in the polyethylene cup which was then capped.

For experiment [4] the test system is unchanged. Nature of the experiment: Filter paper/sucrose bait knockdown test on adult houseflies (Test Example 7). As to conditions: 0.7 ml on filter paper with sucrose bait, after 2 hours, read-out: knockdown rate. The procedure: Each of the formulations of Compounds (2), (4) to (6), (8), (9), (18), (21) to (23), (27), (29), (32) to (36), (38), (41), (42) and (53) of the present invention obtained in Formulation Example 15 was diluted with water, so as to have a concentration of active ingredient of 500 ppm, to prepare a test drug solution.
On the bottom of a polyethylene cup with a diameter of 5.5 cm, a filter paper of the same size was laid down, and 0.7 ml of the test drug solution was dropped onto the filter paper, then 30 mg of sucrose was uniformly put as bait. Ten adult houseflies (Musca domestica) were released in the polyethylene cup which was then capped. After 2 hours, the number of knockdown insects was counted to obtain a knockdown rate. The knockdown rate was calculated by the following equation.
as §1

Regarding `CCCCC/C=C/C(=O)NCC1CCOC1` (centres unmarked) [Compound (1), (E)-N-(tetrahydrofuran-3-ylmethyl)-2-octenamide], the pest or weed control at 0.5 % in experiment [1] was no less than 70%.

The mortality is the share of the test organisms that died. Read a low mortality as a weak lethal effect. For `CCCCC/C=C/C(=O)NCC1CCOCC1` [Compound (24), (E)-N-(tetrahydropyran-4-ylmethyl)-2-octenamide], the mortality at 3.5 ppm in experiment [2] (192 h, after 8 days) was no less than 95%.

Take `CCCCCC/C=C/C(=O)NCC1(CC)COCOC1` [Compound (48), (E)-N-(5-ethyl-1,3-dioxan-5-ylmethyl)-2-nonenamide]: the pest or weed control at 2 % (in experiment [1]; with adult houseflies) was no less than 80% in each case.

For `CCCCCC/C(C)=C/C(=O)NCC1CCOCC1` [Compound (28), (E)-N-(tetrahydropyran-4-ylmethyl)-3-methyl-2-nonenamide], the results for the pest or weed control at 0.5 % (in experiment [1]; in the experiment with adult houseflies) were no less than 70% and no less than 80%, respectively.

As for `CCCCCC/C=C(\F)C(=O)NCC1CCOC1` (centres unmarked) [Compound (7), (Z)—N-(tetrahydrofuran-3-ylmethyl)-2-fluoro-2-nonenamide], the pest or weed control at 2 % (in experiment [1]; in the experiment on adult houseflies) was no less than 80% throughout.

Take `C=CCCCCC/C=C/C(=O)NCC1CCOCC1` [Compound (33), (E)-N-(tetrahydropyran-4-ylmethyl)-deca-2,9-dienamide]: the mortality at 3.5 ppm in experiment [2] (192 h, after 8 days) was no less than 95%. Further, the pest or weed control at 0.5 % in the experiment with adult houseflies is no less than 80%. In addition, the mortality at 500 ppm in experiment [3] is no less than 90%.

The molecule `CCCCCC/C=C/C(=O)NCC1COCCO1` (centres unmarked) [Compound (47), (E)-N-(1,4-dioxan-2-ylmethyl)-2-nonenamide] registered a mortality at 3.5 ppm in experiment [2] (192 h, after 8 days) of no less than 95%.

`CCCCCCC/C=C/C(=O)NCC1CCOC1` (centres unmarked) [Compound (4), (E)-N-(tetrahydrofuran-3-ylmethyl)-2-decenamide]: the pest or weed control at 0.5 % in experiment [1] was no less than 70%; in the experiment with adult houseflies, no less than 80%.

With `CCC1CC1CC/C=C/C(=O)NCC1CCOCC1` (stereo not drawn) [Compound (44), (E)-N-(tetrahydropyran-4-ylmethyl)-5-(trans-2′-ethylcyclopropyl)-2-pentenamide], the pest or weed control at 0.5 % in experiment [1] is no less than 70%.

`CCCCCCCC/C=C/C(=O)NCC1CCOC1` (centres unmarked) [Compound (5), (E)-N-(tetrahydrofuran-3-ylmethyl)-2-undecenamide] gave a mortality at 3.5 ppm in experiment [2] (192 h, after 8 days) of no less than 95%.

In the case of `CC1CC1C1CC1/C=C/C(=O)NCC1CCOCC1` (stereo not drawn) [Compound (53), (E)-N-(tetrahydropyran-4-ylmethyl)-3-(trans-2′-(trans-2″-methylcyclopropyl)cyclopropyl)-2-propenamide], the pest or weed control at 500 ppm in experiment [4] was found to be 100%.

As to `CCCCCCCC/C=C/C(=O)NCC1CCOCC1` [Compound (27), (E)-N-(tetrahydropyran-4-ylmethyl)-2-undecenamide], the mortality at 3.5 ppm in experiment [2] (192 h, after 8 days) was no less than 95%. Moreover, the pest or weed control at 500 ppm in experiment [4] was found to be 100%. The mortality at 500 ppm in experiment [3] is no less than 90%.

In experiment [2] (192 h, after 8 days), `C#CCCCC/C=C/C(=O)NCC1CCOCC1` [Compound (38), (E)-N-(tetrahydropyran-4-ylmethyl)-non-2-en-8-ynamide] showed a mortality at 3.5 ppm of no less than 95%. For the same molecule, in experiment [4], the pest or weed control at 500 ppm worked out at 100%.

`O=C(/C=C/CCCCCl)NCC1CCOCC1` [Compound (54), (E)-N-(tetrahydropyran-4-ylmethyl)-7-chloro-2-heptenamide]: the pest or weed control at 2 % in experiment [1] is no less than 80%.

With `CCCCCC/C=C/C(=O)NCC1CCOC1` (centres unmarked) [Compound (2), (E)-N-(tetrahydrofuran-3-ylmethyl)-2-nonenamide], the pest or weed control at 0.5 % in experiment [1] is no less than 70%. The pest or weed control at 500 ppm in experiment [4] was determined as 100%.

As for `CCCCCC/C=C/C(=O)NCC1CCCCO1` (centres unmarked) [Compound (46), (E)-N-(tetrahydropyran-2-ylmethyl)-2-nonenamide], the pest or weed control at 2 % (in experiment [1]; in the experiment with adult houseflies) was no less than 80% throughout.

Molecule `CCCCCCC/C=C/C(=O)NCC1CCOCC1` [Compound (26), (E)-N-(tetrahydropyran-4-ylmethyl)-2-decenamide] registered a mortality at 3.5 ppm in experiment [2] (after a day) of no less than 95%.

As for `CCCC1CC1/C=C/C(=O)NCC1CCOCC1` (stereo not drawn) [Compound (41), (E)-N-(tetrahydropyran-4-ylmethyl)-3-(trans-2′-propylcyclopropyl)-2-propenamide], in experiment [4], the pest or weed control at 500 ppm was determined as 100%. In addition, in experiment [3], the mortality at 500 ppm was no less than 90%.

`CCCCCC/C(C)=C(/F)C(=O)NCC1CCOCC1` [Compound (30), (E)-N-(tetrahydropyran-4-ylmethyl)-2-fluoro-3-methyl-2-nonenamide] came in with a mortality at 3.5 ppm in experiment [2] (192 h, after 8 days) of no less than 95%.

Molecule `C=CCCCCC/C=C/C(=O)NCC1CCOC1` (centres unmarked) [Compound (12), (E)-N-(tetrahydrofuran-3-ylmethyl)-deca-2,9-dienamide] returned a mortality at 500 ppm in experiment [3] of no less than 90%.

For `CCCCCC/C(C)=C(\F)C(=O)NCC1CCOC1` (centres unmarked) [Compound (8), (Z)—N-(tetrahydrofuran-3-ylmethyl)-2-fluoro-3-methyl-2-nonenamide], in experiment [4], the pest or weed control at 500 ppm is 100%. For the same molecule, the pest or weed control at 0.5 % in the experiment on adult houseflies was no less than 80%. The same molecule gave a mortality at 500 ppm in experiment [3] of no less than 90%.

For the molecule `CCCCCC/C(C)=C/C(=O)NCC1CCOC1` (centres unmarked) [Compound (6), (E)-N-(tetrahydrofuran-3-ylmethyl)-3-methyl-2-nonenamide], the mortality at 3.5 ppm in experiment [2] (192 h, after 8 days) was no less than 95%. For the same molecule, the pest or weed control at 0.5 % in the experiment with adult houseflies is no less than 80%.

For the molecule `CCCCC1CC1/C=C/C(=O)NCC1CCOCC1` (stereo not drawn) [Compound (42), (E)-N-(tetrahydropyran-4-ylmethyl)-3-(trans-2′-butylcyclopropyl)-2-propenamide], the pest or weed control at 500 ppm in experiment [4] is 100%. In experiment [3], this molecule registered a mortality at 500 ppm of no less than 90%.

Consider `CCCCCC/C(C)=C(/F)C(=O)NCC1CCOC1` (centres unmarked) [Compound (9), (E)-N-(tetrahydrofuran-3-ylmethyl)-2-fluoro-3-methyl-2-nonenamide], for which the pest or weed control at 500 ppm in experiment [4] was determined as 100%.

As for `CCCC1CC1/C=C/C(=O)NCC1CCOC1` (stereo not drawn) [Compound (18), (E)-N-(tetrahydrofuran-3-ylmethyl)-3-(trans-2′-propylcyclopropyl)-2-propenamide], the pest or weed control at 500 ppm in experiment [4] is 100%.
